Experimental data reported in patent US20080176810A1, “Use of 3, 4', 5-Trihydroxy-Stilbene-3-Beta-D-glucoside in Prepartion of Medicines For Treating and/or Preventing Ischemic Heart Disease” (SHENZHEN NEPTUNUS PHARMACEUTICAL CO., LTD., priority 2004, published 2008).
Read-outs that look alike come from different tables or passages of the source.

Columns and labels:
anesthetized dogs = test: Hemodynamics in anesthetized dogs, iv; type: in vivo
Protocol: Solvent control group, Isosorbide Dinitrate control group (0.4 mg/kg/h) and administration groups of 3,4′,5-trihydroxy-stilbene-3-[…]-D-glucoside at low (2.5 mg/kg), middle (5 mg/kg) or high (10 mg/kg) doses were set up for the test. Isosorbide Dinitrate control group were medicated by continuous intravenous infusion and other groups by intravenous injection.
After anesthetized with pentobarbital sodium, the dog was immobilized on its back. A femoral artery was separated for insertion of a catheter to record blood pressure of artery. A cardiac catheter was guided inversely from right common carotid artery into its left ventricle. Both catheters were connected to pressure transmitters. After pressure signals were amplified with carriers, they were input into an electrophysiolograph Powerlab system 8s, (ML785/8S AD Instruments, Australia). Needle electrodes were punctured into four limbs to monitor standard 2-lead ECG. A computer (chart4.12, ML785/8S, AD Instruments, Australia) were applied for real-time monitoring and storage of data. After operation, there were 30 minutes for stableness and then basic indexes were recorded before administration. Negative control group were given by […] injection of solvent at 2 ml/kg, while positive control group were intravenously infused at 0.4 mg/kg/h. […]
Indexes of observation included heart rate (HR), systolic blood pressure (BPs), diastolic blood pressure, mean blood pressure, left ventricular systolic pressure (LVSP), left ventricular diastolic pressure (LVDP), the maximum change rate of left ventricular systolic pressure rise and fall (±dp/dtmax), left ventricular end diastolic pressure and ECG.
Significance of differences was checked.

platelet aggregation = details: 6~100 μmol/L TSG; cited from earlier work
[1] = test system: isolated carotid and pulmonary arteries; details: cited from earlier work
vascular smooth muscle = details: 0.02 mM~2 mM; cited from earlier work
[2] = TSG 2.5 mg/kg iv, Time c1-c5: 0,10,30,60,120 min, 10 min after dosing
[3] = TSG 2.5 mg/kg iv, Time c1-c5: 0,10,30,60,120 min, 30 min after dosing
[4] = TSG 2.5 mg/kg iv, Time c1-c5: 0,10,30,60,120 min, 60 min after dosing
[5] = TSG 2.5 mg/kg iv, Time c1-c5: 0,10,30,60,120 min, 120 min after dosing
[6] = TSG 2.5 mg/kg iv, Time c1-c5: 0,10,30,60,120 min, before dosing (0 min)
[7] = TSG 5 mg/kg iv, Time c1-c5: 0,15,30,60,120 min, 0 min, before dosing
[8] = TSG 5 mg/kg iv, Time c1-c5: 0,15,30,60,120 min, 15 min after dosing
[9] = TSG 5 mg/kg iv, Time c1-c5: 0,15,30,60,120 min, 30 min after dosing
[10] = TSG 5 mg/kg iv, Time c1-c5: 0,15,30,60,120 min, 60 min after dosing
[11] = TSG 5 mg/kg iv, Time c1-c5: 0,15,30,60,120 min, 120 min after dosing
[12] = TSG 10 mg/kg iv, Time c1-c5: 0,10,30,60,120 min, 0 min
[13] = TSG 10 mg/kg iv, Time c1-c5: 0,10,30,60,120 min, 10 min after dosing
[14] = TSG 10 mg/kg iv, Time c1-c5: 0,10,30,60,120 min, 30 min after dosing
[15] = TSG 10 mg/kg iv, Time c1-c5: 0,10,30,60,120 min, 60 min after dosing
[16] = TSG 10 mg/kg iv, Time c1-c5: 0,10,30,60,120 min, 120 min after dosing

3,4′,5-trihydroxy-stilbene-3-β-D-glucoside [TSG]
+dp/dt max (anesthetized dogs; [2]): 829.1 ± 308.3 Kpa/s | BPd (anesthetized dogs; [2]): 18.3 ± 2.3 KPa | BPm (anesthetized dogs; [2]): 20.7 ± 2.1 KPa | BPs (anesthetized dogs; [2]): 24.5 ± 2.0 KPa | HR (anesthetized dogs; [2]): 160.4 ± 18.4 p/min | LVDP (anesthetized dogs; [2]): 0.45 ± 2.40 KPa | LVEDP (anesthetized dogs; [2]): 1.00 ± 2.33 KPa | LVSP (anesthetized dogs; [2]): 25.2 ± 4.2 KPa | −dp/dt max (anesthetized dogs; [2]): 777.3 ± 241.8 Kpa/s | +dp/dt max (anesthetized dogs; [3]): 869.6 ± 235.9 Kpa/s | BPd (anesthetized dogs; [3]): 18.5 ± 2.2 KPa | BPm (anesthetized dogs; [3]): 20.8 ± 1.7 KPa | BPs (anesthetized dogs; [3]): 24.7 ± 1.3 KPa | HR (anesthetized dogs; [3]): 161.7 ± 18.0 p/min | LVDP (anesthetized dogs; [3]): 0.28 ± 2.40 KPa | LVEDP (anesthetized dogs; [3]): 1.11 ± 2.50 KPa | LVSP (anesthetized dogs; [3]): 25.7 ± 3.8 KPa | −dp/dt max (anesthetized dogs; [3]): 873.9 ± 236.8 Kpa/s | +dp/dt max (anesthetized dogs; [4]): 993.9 ± 206.2 Kpa/s | BPd (anesthetized dogs; [4]): 19.1 ± 2.5 KPa | BPm (anesthetized dogs; [4]): 21.6 ± 2.0 KPa | BPs (anesthetized dogs; [4]): 25.5 ± 1.6 KPa | HR (anesthetized dogs; [4]): 171.1 ± 18.8 p/min | LVDP (anesthetized dogs; [4]): 0.26 ± 2.35 KPa | LVEDP (anesthetized dogs; [4]): 0.78 ± 2.37 KPa | LVSP (anesthetized dogs; [4]): 26.5 ± 2.5 KPa | −dp/dt max (anesthetized dogs; [4]): 905.9 ± 207.8 Kpa/s | +dp/dt max (anesthetized dogs; [5]): 957.9 ± 190.0 Kpa/s | BPd (anesthetized dogs; [5]): 18.1 ± 1.8 KPa | BPm (anesthetized dogs; [5]): 20.2 ± 2.3 KPa | BPs (anesthetized dogs; [5]): 23.7 ± 3.3 KPa | HR (anesthetized dogs; [5]): 170.5 ± 16.1 p/min | LVDP (anesthetized dogs; [5]): 0.50 ± 2.06 KPa | LVEDP (anesthetized dogs; [5]): 1.09 ± 2.16 KPa | LVSP (anesthetized dogs; [5]): 26.7 ± 2.3 KPa | −dp/dt max (anesthetized dogs; [5]): 852.5 ± 159.6 Kpa/s | +dp/dt max (anesthetized dogs; [6]): 853.1 ± 321.1 Kpa/s | BPd (anesthetized dogs; [6]): 18.5 ± 1.7 KPa | BPm (anesthetized dogs; [6]): 21.1 ± 2.0 KPa | BPs (anesthetized dogs; [6]): 25.3 ± 3.0 KPa | HR (anesthetized dogs; [6]): 163.7 ± 21.1 p/min | LVDP (anesthetized dogs; [6]): 0.39 ± 2.20 KPa | LVEDP (anesthetized dogs; [6]): 1.14 ± 2.18 KPa | LVSP (anesthetized dogs; [6]): 24.9 ± 4.0 KPa | −dp/dt max (anesthetized dogs; [6]): 772.0 ± 201.0 Kpa/s | +dp/dt max (anesthetized dogs; [7]): 822.6 ± 353.8 Kpa/s | BPd (anesthetized dogs; [7]): 18.9 ± 4.2 KPa | BPm (anesthetized dogs; [7]): 21.1 ± 4.7 KPa | BPs (anesthetized dogs; [7]): 25.4 ± 6.4 KPa | HR (anesthetized dogs; [7]): 177.2 ± 35.5 p/min | LVEDP (anesthetized dogs; [7]): 1.05 ± 1.34 KPa | LVSP (anesthetized dogs; [7]): 24.1 ± 4.4 KPa | −dp/dt max (anesthetized dogs; [7]): 866.2 ± 350.7 Kpa/s | +dp/dt max (anesthetized dogs; [8]): 793.8 ± 299.0 Kpa/s | BPd (anesthetized dogs; [8]): 18.7 ± 4.4 KPa | BPs (anesthetized dogs; [8]): 25.4 ± 5.8 KPa | HR (anesthetized dogs; [8]): 171.0 ± 35.6 p/min | LVEDP (anesthetized dogs; [8]): 1.08 ± 1.62 KPa | LVSP (anesthetized dogs; [8]): 24.3 ± 4.6 KPa | −dp/dt max (anesthetized dogs; [8]): 812.2 ± 308.9 Kpa/s | +dp/dt max (anesthetized dogs; [9]): 855.5 ± 296.5 Kpa/s | BPd (anesthetized dogs; [9]): 19.2 ± 4.0 KPa | BPm (anesthetized dogs; [9]): 21.7 ± 4.2 KPa | BPs (anesthetized dogs; [9]): 26.1 ± 5.3 KPa | HR (anesthetized dogs; [9]): 170.0 ± 35.5 p/min | LVEDP (anesthetized dogs; [9]): 1.19 ± 1.76 KPa | LVSP (anesthetized dogs; [9]): 24.6 ± 4.6 KPa | −dp/dt max (anesthetized dogs; [9]): 912.3 ± 318.8 Kpa/s | +dp/dt max (anesthetized dogs; [10]): 936.1 ± 199.9 Kpa/s | BPd (anesthetized dogs; [10]): 19.8 ± 3.3 KPa | BPm (anesthetized dogs; [10]): 22.1 ± 3.3 KPa | BPs (anesthetized dogs; [10]): 26.6 ± 4.1 KPa | HR (anesthetized dogs; [10]): 178.0 ± 29.5 p/min | LVEDP (anesthetized dogs; [10]): 0.99 ± 1.19 KPa | LVSP (anesthetized dogs; [10]): 25.6 ± 3.0 KPa | −dp/dt max (anesthetized dogs; [10]): 891.5 ± 261.8 Kpa/s | +dp/dt max (anesthetized dogs; [11]): 921.4 ± 327.1 Kpa/s | BPd (anesthetized dogs; [11]): 18.8 ± 4.4 KPa | BPm (anesthetized dogs; [11]): 21.0 ± 4.4 KPa | BPs (anesthetized dogs; [11]): 25.0 ± 5.0 KPa | HR (anesthetized dogs; [11]): 170.2 ± 37.1 p/min | LVEDP (anesthetized dogs; [11]): 0.98 ± 1.42 KPa | LVSP (anesthetized dogs; [11]): 25.1 ± 5.2 KPa | −dp/dt max (anesthetized dogs; [11]): 872.0 ± 291.7 Kpa/s | +dp/dt max (anesthetized dogs; [12]): 1455.5 ± 637.7 Kpa/s | BPd (anesthetized dogs; [12]): 19.6 ± 3.7 KPa | BPm (anesthetized dogs; [12]): 22.5 ± 4.8 KPa | BPs (anesthetized dogs; [12]): 28.5 ± 7.5 KPa | HR (anesthetized dogs; [12]): 212.5 ± 31.3 p/min | LVSP (anesthetized dogs; [12]): 30.1 ± 5.9 KPa | −dp/dt max (anesthetized dogs; [12]): 1164.1 ± 488.8 Kpa/s | +dp/dt max (anesthetized dogs; [13]): 1646.2 ± 807.8 Kpa/s | BPd (anesthetized dogs; [13]): 21.0 ± 5.1 KPa | BPm (anesthetized dogs; [13]): 24.5 ± 5.9 KPa | BPs (anesthetized dogs; [13]): 32.4 ± 8.2 KPa | HR (anesthetized dogs; [13]): 209.7 ± 33.4 p/min | LVSP (anesthetized dogs; [13]): 32.4 ± 6.3 KPa | −dp/dt max (anesthetized dogs; [13]): 1200.6 ± 447.6 Kpa/s | +dp/dt max (anesthetized dogs; [14]): 1623.9 ± 729.5 Kpa/s | BPd (anesthetized dogs; [14]): 21.4 ± 5.5 KPa | BPm (anesthetized dogs; [14]): 25.1 ± 5.9 KPa | BPs (anesthetized dogs; [14]): 33.2 ± 8.5 KPa | HR (anesthetized dogs; [14]): 210.2 ± 33.8 p/min | LVSP (anesthetized dogs; [14]): 32.4 ± 6.8 KPa | −dp/dt max (anesthetized dogs; [14]): 1120.4 ± 357.8 Kpa/s | +dp/dt max (anesthetized dogs; [15]): 1518.5 ± 708.1 Kpa/s | BPd (anesthetized dogs; [15]): 20.6 ± 4.8 KPa | BPm (anesthetized dogs; [15]): 24.4 ± 5.1 KPa | BPs (anesthetized dogs; [15]): 33.6 ± 5.5 KPa | HR (anesthetized dogs; [15]): 207.1 ± 38.1 p/min | LVSP (anesthetized dogs; [15]): 31.7 ± 5.5 KPa | −dp/dt max (anesthetized dogs; [15]): 1189.6 ± 461.6 Kpa/s | +dp/dt max (anesthetized dogs; [16]): 1266.6 ± 334.8 Kpa/s | BPd (anesthetized dogs; [16]): 20.2 ± 3.0 KPa | BPm (anesthetized dogs; [16]): 22.7 ± 3.0 KPa | BPs (anesthetized dogs; [16]): 29.0 ± 4.8 KPa | HR (anesthetized dogs; [16]): 205.6 ± 50.2 p/min | LVSP (anesthetized dogs; [16]): 29.5 ± 2.7 KPa | −dp/dt max (anesthetized dogs; [16]): 1068.5 ± 208.6 Kpa/s | platelet aggregation and production of thromboxane B2 induced by arachidonic acid, adenosine diphosphate and adrenalin (platelet aggregation): inhibited | effect on vasoconstriction of noadrenalin ([1]; 1.37 mM): no noticeable effect | effect on vasoconstriction of noadrenalin ([1]; 1.71 mM): antagonistic effect | effect on isolated carotid and pulmonary arteries ([1]; 3.28 mM): no noticeable effect | effect on isolated carotid and pulmonary arteries ([1]; 5.12 mM): may relax | intracellular calcium concentration in vascular smooth muscle (vascular smooth muscle): increase intracellular calcium concentration in vascular smooth muscle remarkably
